“And” between values parts separate entries of the source, which are not always exact repeats. Equal values may be shown once.
Columns and labels:
[1] = target: T1, human GPR43 (FFAR2) (Homo sapiens, UniProt O15552); experiment: cAMP (LANCE) functional assay, CHO cells expressing human GPR43; format: cell-based
T1 construct: expressed in transfected cells
T1 sequence (O15552 1-330): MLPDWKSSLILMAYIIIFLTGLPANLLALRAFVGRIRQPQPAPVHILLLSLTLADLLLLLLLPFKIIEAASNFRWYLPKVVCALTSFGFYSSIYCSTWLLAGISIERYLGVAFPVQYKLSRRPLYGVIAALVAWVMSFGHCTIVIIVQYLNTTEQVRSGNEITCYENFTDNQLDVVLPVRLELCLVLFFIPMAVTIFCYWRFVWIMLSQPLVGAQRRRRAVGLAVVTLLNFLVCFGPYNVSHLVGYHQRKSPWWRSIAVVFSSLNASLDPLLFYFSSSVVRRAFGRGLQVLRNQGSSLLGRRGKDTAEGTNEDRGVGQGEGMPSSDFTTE
Protocol: CHO cells stably expressing human GPR41 or human GPR43 were harvested with non-enzymatic cell dissociation buffer and re-suspended in LANCE stimulation buffer (prepared as described by PE) at 0.25 million cells per ml (3.3 million cells per ml for GPR43) and 6 μl was then plated into each well of a 384-well Culturplate. Compounds were serially diluted in DMSO and then diluted further into stimulation buffer containing 2 μM forskolin (Sigma) at 2-times final concentration in the assay. 6 μl of the diluted compounds were then added to the assay plate and the plate incubated for 60 mins at room temperature. After the incubation, 12 μl of detection reagent (prepared as described by PE) was added to each well and the plates incubated one additional hour at room temperature. After the final incubation, the plates were read in a Perkin Elmer Envision reader with a method designed for Time-resolved fluorescence (TRF) assays (340 nm excitation, dual emission 615 and 655 nm). For each assay, a cAMP standard curve plate was also included. All fluorescent readings (using the 655/615 nm ratio) were converted to cAMP concentration using the cAMP standard curve and the percent activity at each concentration of test compound was determined using 0% activation (basal activity) determined in those wells containing DMSO alone, while 100% activity was determined in wells containing a concentration of agonist know to maximally activate the receptor.

[2] = system: pancreatic islets of Langerhans from GPR40−/− mice; experiment: glucose stimulated insulin secretion (GSIS), isolated GPR40 KO islets; format: cell-based, mouse; settings: 10 uM compound, 60 min, individual wells
Protocol: Pancreatic islets of Langerhans were isolated from wild-type and GPR40−/− mice (littermates) by collagenase digestion and discontinuous Ficoll gradient separation. […] Insulin secretion was determined by a 1 hr static incubation in Krebs-Ringer bicarbonate (KRB) buffer in a 96-well format as previously described. Briefly, islets were first preincubated in KRB medium with 2 mmol/l glucose for 30 min and were then transferred to a 96-well plate (three islets/well) and incubated with 200 μl of the KRB medium with 2 or 15 mmol/l glucose in the presence or absence of testing compounds for 60 min. The buffer was removed from the wells at the end of the incubation and assayed for insulin levels using the Ultrasensitive Rat Insulin ELISA kit (ALPCO, Salem, NH). All insulin secretion data were normalized by total islet numbers (ex: three islets/well), so the unit is secreted insulin (ng/ml) per islet.

[3] = system: GK rats; experiment: GK rat chronic efficacy, compound in feed for 20 days; format: in vivo; settings: for effect on body weight / effect on food intake: GK rats; for % HBA1c / Liver Triglycerides: following 20 days of treatment in the GK rat, individual animals; for Morning (fed) Blood Glucose: 30 mpk in feed
Protocol: At the start of the study, fed glucose was measured at 8 A.M., and animals were selected and sorted into treatment groups based on ambient glucose (n = 10/male GK group, n = 6/male WKY control group). […] Fed blood glucose, food intake, and body weights were determined on days 0, 1, 3, 7, and 14 of study at 8 A.M. On days 7 and 14, food was removed for 5 h and plasma glucose was measured. Percent inhibitions were calculated as the percent reduction of blood glucose from the average value for vehicle controls. On day 14, blood was collected from the tail vein (20 μl) after the morning glucose measurement and after 5 h fast from a subset of n = 3 rats per treatment group to determine the ambient and fasted exposure of the compounds in circulation. The blood was stored at 4°C in 0.1 M sodium monocitrate for subsequent analysis. Animals were then re-fed their respective diet treatments. On day 20 of treatment at 8 A.M., blood glucose was measured and then animals were euthanized via CO2 asphyxiation. Blood and liver tissue were sampled, processed, and stored at -80°C until analysis.
Plasma was analyzed for triglycerides, NEFA, and HbA1C using a P Modular Roche Clinical Chemistry analyzer. Liver triglycerides were extracted as described by Bligh and Dyer, and were measured using the Infinity triglyceride assay kit (Thermo Scientific, Rockford, IL). Plasma insulin levels were measured via EIA (Mesoscale Discovery ELISA Kit, Gaithersburg MD).

% Activation ([1]; @ 25 μM): 61 @ 25 μM % and 61%
% Effect ([1]; Dose 1.267 nM): -23%
% Effect ([1]; Dose 3.801 nM): -37%
% Effect ([1]; Dose 34.208 nM): -32%
% Effect ([1]; Dose 102.624 nM): 25%
% Effect ([1]; Dose 307.872 nM): -78%
% Effect ([1]; Dose 923.617 nM): -34%
% Effect ([1]; Dose 2770.85 nM): -39%
% Effect ([1]; Dose 8312.55 nM): -23%
% Effect ([1]; Dose 24938 nM): 61%
EC50 ([1]; cAMP, CHO cells expressing human GPR43): > 25 µM
effect on food intake ([3]; 10 mg/kg in feed): no significant effect
Structure (SMILES): O=C1NC(=O)C(C2CCOc3cc(Oc4ccc(C(F)(F)F)cc4Cl)ccc32)S1 (stereo not drawn) [MK-2305]
secreted insulin per islet ([2]; 2mM glucose): 0.3958 ng/ml per islet and 0.3056 ng/ml per islet and 0.5799 ng/ml per islet and 0.6404 ng/ml per islet and 0.5029 ng/ml per islet and 1.032 ng/ml per islet and 0.612 ng/ml per islet and 0.7615 ng/ml per islet
secreted insulin per islet ([2]; 15 mM Glucose): 2.615 ng/ml per islet and 3.66 ng/ml per islet and 2.83 ng/ml per islet and 4.29 ng/ml per islet and 3.64 ng/ml per islet and 2.75 ng/ml per islet and 4.57 ng/ml per islet and 4.28 ng/ml per islet
effect on body weight ([3]; 10 mg/kg in feed): no significant effect
effect on food intake ([3]; 30 mg/kg in feed, p < 0.05): reduction in food intake that persisted through day 14
effect on body weight ([3]; 30 mg/kg in feed, relative to vehicle controls): did not correspond to changes in body weight
% HBA1c ([3]; 10 mpk): 4.3% and 4.6% and 4.2% and 4.4% and 4.5%
Liver Triglycerides ([3]; 10 mpk): 19.1 mg/g tissue and 21.7 mg/g tissue and 24.5 mg/g tissue and 22.1 mg/g tissue and 24.7 mg/g tissue and 26.9 mg/g tissue and 25.8 mg/g tissue and 22.8 mg/g tissue
Morning (fed) Blood Glucose ([3]; Day 0 (start of study), individual GK rats): 189 mg/dL and 176 mg/dL and 238 mg/dL and 199 mg/dL and 183 mg/dL and 212 mg/dL and 192 mg/dL and 274 mg/dL and 228 mg/dL
Morning (fed) Blood Glucose ([3]; Day 1, individual GK rats): 147 mg/dL and 165 mg/dL and 223 mg/dL and 161 mg/dL and 155 mg/dL and 192 mg/dL and 153 mg/dL and 302 mg/dL and 159 mg/dL
Morning (fed) Blood Glucose ([3]; Day 3, individual GK rats): 139 mg/dL and 153 mg/dL and 156 mg/dL and 150 mg/dL and 169 mg/dL and 149 mg/dL and 154 mg/dL and 218 mg/dL and 134 mg/dL
Morning (fed) Blood Glucose ([3]; Day 7, individual GK rats): 139 mg/dL and 153 mg/dL and 126 mg/dL and 142 mg/dL and 151 mg/dL and 181 mg/dL and 197 mg/dL and 140 mg/dL
Morning (fed) Blood Glucose ([3]; Day 14, individual GK rats): 141 mg/dL and 143 mg/dL and 156 mg/dL and 133 mg/dL and 132 mg/dL and 146 mg/dL and 147 mg/dL
Morning (fed) Blood Glucose ([3]; Day 20, individual GK rats): 128 mg/dL and 137 mg/dL and 159 mg/dL and 133 mg/dL and 139 mg/dL and 122 mg/dL and 126 mg/dL and 115 mg/dL and 142 mg/dL
% HBA1c ([3]; 30 mpk): 4.4% and 4.5% and 4.3%
Liver Triglycerides ([3]; 30 mpk): 16.7 mg/g tissue and 23.9 mg/g tissue and 28.2 mg/g tissue and 27.1 mg/g tissue and 24.5 mg/g tissue and 23 mg/g tissue and 24.3 mg/g tissue
